In PubChem BioAssay AID328 (DTP/NCI, 2004):
Where “and” joins values, the source holds several entries; their conditions need not be identical. Equal values may be shown once. Inconclusive results and toxic doses are left out. Rule for the calls: active = survival T/C of 150% or more; inactive = T/C below 125% in these data.

Test system: BDF1 mice, P388 leukemia ip, median survival T/C
Experiment: NCI In Vivo Anticancer Drug Screen. Data for tumor model P388 Leukemia (intraperitoneal) in B6D2F1 (BDF1) mice
Details: endpoint: median survival time, higher = longer survival
How it was run: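 Transplantable tumour in mice; compound vs vehicle dosing; survival scored; ratio of treated to control reported.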

[1] = dose: 50.0 mg/kg/injection, schedule: Q01DX009 (ip), vehicle: saline with Tween-80
[2] = dose: 100.0 mg/kg/injection, schedule: Q01DX009 (ip), vehicle: saline with Tween-80
[3] = dose: 200.0 mg/kg/injection, schedule: Q01DX009 (ip), vehicle: saline with Tween-80
[4] = dose: 25.0 mg/kg/injection, schedule: Q01DX009 (ip), vehicle: saline with Tween-80
[5] = dose: 200.0 mg/kg/injection, schedule: Q01DX009 (ip), vehicle: saline
[6] = dose: 400.0 mg/kg/injection, schedule: Q01DX009 (ip), vehicle: saline
[7] = dose: 50.0 mg/kg/injection, schedule: Q04DX003 (ip), vehicle: Klucel (hydroxypropylcellulose) (HPC)
[8] = dose: 100.0 mg/kg/injection, schedule: Q04DX003 (ip), vehicle: Klucel (hydroxypropylcellulose) (HPC)
[9] = dose: 200.0 mg/kg/injection, schedule: Q04DX003 (ip), vehicle: Klucel (hydroxypropylcellulose) (HPC)
[10] = dose: 100.0 mg/kg/injection, schedule: Q04DX003 (ip), vehicle: saline with Tween-80
[11] = dose: 200.0 mg/kg/injection, schedule: Q04DX003 (ip), vehicle: saline with Tween-80
[12] = dose: 400.0 mg/kg/injection, schedule: Q04DX003 (ip), vehicle: saline with Tween-80
[13] = dose: 100.0 mg/kg/injection, schedule: Q01DX001 (ip), vehicle: saline
[14] = dose: 200.0 mg/kg/injection, schedule: Q01DX001 (ip), vehicle: saline
[15] = dose: 400.0 mg/kg/injection, schedule: Q01DX001 (ip), vehicle: saline
[16] = dose: 100.0 mg/kg/injection, schedule: Q01DX001 (ip), vehicle: saline sonified
[17] = dose: 200.0 mg/kg/injection, schedule: Q01DX001 (ip), vehicle: saline sonified
[18] = dose: 400.0 mg/kg/injection, schedule: Q01DX001 (ip), vehicle: saline sonified
[19] = dose: 100.0 mg/kg/injection, schedule: Q04DX003 (ip), vehicle: saline

Measured: T/C

COc1cc2c(c(OC)c1OC)-c1ccc(OC)c(=O)cc1[C@@H](NC(=O)C(F)(F)F)CC2
active: dose: 0.09 mg/kg/injection, schedule: Q01DX009 (ip), vehicle: Klucel (hydroxypropylcellulose) (HPC) 155 % of control | dose: 0.18 mg/kg/injection, schedule: Q01DX009 (ip), vehicle: Klucel (hydroxypropylcellulose) (HPC) 171 % of control | dose: 0.39 mg/kg/injection, schedule: Q01DX009 (ip), vehicle: Klucel (hydroxypropylcellulose) (HPC) 245 % of control

CC1=C(c2ccccc2)C(c2ccccc2)C(/C=C/c2ccccc2)=NC=C1c1ccccc1 (centres undefined)
inactive: [1] 108 % of control | [2] 94 % of control | [3] 97 % of control

CC(C)CC(NC(=O)CN)C(=O)O (centres undefined)
inactive: [4] 98 % of control | [1] 99 % of control | [2] 102 % of control | [3] 111 % of control | [5] 118 % of control | [6] 96 % of control

Cc1cc(C)c(B2OB(c3c(C)cc(C)cc3C)O2)c(C)c1
inactive: [7] 95 % of control | [8] 100 % of control | [9] 95 % of control

c1ccc(-c2nc3ccccc3nc2-c2ccc(Cc3ccc(-c4nc5ccccc5nc4-c4ccccc4)cc3)cc2)cc1
inactive: [1] 88 % of control | [2] 103 % of control | [3] 88 % of control

CCCCCCCCC(=O)CCC
inactive: [7] 100 % of control | [8] 109 % of control | [9] 100 % of control | dose: 400.0 mg/kg/injection, schedule: Q04DX003 (ip), vehicle: Klucel (hydroxypropylcellulose) (HPC) 87 % of control

COc1ccc(C(=O)CC(C(=O)O)c2ccc(OC)c(OC)c2)cc1OC (centres undefined)
inactive: [2] 104 % of control | [3] 104 % of control | dose: 400.0 mg/kg/injection, schedule: Q01DX009 (ip), vehicle: saline with Tween-80 100 % of control

NC(C(=O)O)C(O)c1cnc[nH]1 (centres undefined)
inactive: dose: 25.0 mg/kg/injection, schedule: Q01DX009 (ip), vehicle: water 101 % of control | dose: 50.0 mg/kg/injection, schedule: Q01DX009 (ip), vehicle: water 96 % of control | dose: 100.0 mg/kg/injection, schedule: Q01DX009 (ip), vehicle: water 97 % of control | dose: 200.0 mg/kg/injection, schedule: Q01DX009 (ip), vehicle: water 93 % of control | dose: 400.0 mg/kg/injection, schedule: Q01DX009 (ip), vehicle: water 97 % of control

Oc1c(Cl)cc(Cl)cc1C=Nc1cc(C(F)(F)F)ccc1Cl
inactive: [1] 87 % of control | [2] 89 % of control | [3] 99 % of control

CC(C)(C)NCC(O)c1cc(C(F)(F)F)nc2c(C(F)(F)F)cccc12 (centres undefined)
inactive: [1] 100 % of control | [2] 100 % of control | [3] 97 % of control

N#Cc1ccc(NCCO)cc1
inactive: [10] 111 % of control | [11] 100 % of control | [12] 111 % of control

c1cnc2sccc2c1
inactive: [10] 100 % of control | [11] 109 % of control

COC(=O)C1=C(C(=O)OC)C(C(=O)OC)N2C=C(C)C=CC2=C1C(=O)OC (centres undefined)
inactive: [1] 102 % of control | [2] 100 % of control | [3] 98 % of control

CCOC(=O)C1=C(O)Cc2c(nc3ccc(C)cn3c2=O)C1
inactive: [1] 100 % of control | [2] 96 % of control | [3] 98 % of control

C(=N\n1cnnc1)/c1ccc(/C=N/n2cnnc2)cc1
inactive: [13] 118 % of control | [14] 104 % of control | [15] 95 % of control

O=Cc1nc2ccccc2c2ccccc12
inactive: [16] 100 % of control | [17] 100 % of control | [18] 100 % of control

O=S1(=O)CC(S(=O)(=O)O)C(S(=O)(=O)O)C1 (centres undefined)
inactive: [7] 100 % of control | [13] 108 % of control | [8] 100 % of control | [14] 100 % of control | [9] 100 % of control | [15] 108 % of control

CC(C)NC1(C(N)=O)CCN(Cc2ccccc2)CC1
inactive: dose: 50.0 mg/kg/injection, schedule: Q01DX009 (ip), vehicle: Klucel (hydroxypropylcellulose) (HPC) 95 % of control | dose: 100.0 mg/kg/injection, schedule: Q01DX009 (ip), vehicle: Klucel (hydroxypropylcellulose) (HPC) 91 % of control | dose: 200.0 mg/kg/injection, schedule: Q01DX009 (ip), vehicle: Klucel (hydroxypropylcellulose) (HPC) 95 % of control

O=Cc1ccc2c(c1)OCCOCCOCCOCCO2
inactive: [1] 104 % of control | [2] 121 % of control | [3] 117 % of control

CC(=O)Nc1cc(C)ccc1O
inactive: [10] 100 % of control | [11] 104 % of control | [12] 90 % of control

O=C(NO)c1cccnc1
inactive: dose: 300.0 mg/kg/injection, schedule: Q01DX010 (ip), vehicle: water 119 % of control | dose: 400.0 mg/kg/injection, schedule: Q01DX010 (ip), vehicle: water 109 % of control and 118 % of control
active: dose: 600.0 mg/kg/injection, schedule: Q01DX010 (ip), vehicle: water 150 % of control and 154 % of control

CN(CCS)C(=N)N
inactive: dose: 3.13 mg/kg/injection, schedule: Q01DX009 (ip), vehicle: saline with Tween-80 112 % of control | dose: 6.25 mg/kg/injection, schedule: Q01DX009 (ip), vehicle: saline with Tween-80 99 % of control | dose: 12.5 mg/kg/injection, schedule: Q01DX009 (ip), vehicle: saline with Tween-80 111 % of control | [4] 104 % of control

S=c1cc(-c2ccc(Cl)cc2)ss1
inactive: dose: 25.0 mg/kg/injection, schedule: Q01DX009 (ip), vehicle: saline 123 % of control | dose: 50.0 mg/kg/injection, schedule: Q01DX009 (ip), vehicle: saline 101 % of control | dose: 100.0 mg/kg/injection, schedule: Q01DX009 (ip), vehicle: saline 107 % of control | [19] 107 % of control | [5] 107 % of control | dose: 200.0 mg/kg/injection, schedule: Q04DX003 (ip), vehicle: saline 110 % of control | [6] 123 % of control | dose: 400.0 mg/kg/injection, schedule: Q04DX003 (ip), vehicle: saline 100 % of control

O=C1OCC2SC(c3ccccc3)NC12 (centres undefined)
inactive: [16] 95 % of control | [17] 113 % of control | [18] 95 % of control

COc1ccc2c(Nc3ccc(NS(C)(=O)=O)cc3)c3ccccc3nc2c1
inactive: [19] 104 % of control
active: dose: 0.66 mg/kg/injection, schedule: Q01DX009 (ip), vehicle: saline with Tween-80 169 % of control | dose: 1.0 mg/kg/injection, schedule: Q01DX009 (ip), vehicle: saline with Tween-80 194 % of control | dose: 1.5 mg/kg/injection, schedule: Q01DX009 (ip), vehicle: saline with Tween-80 201 % of control | dose: 2.66 mg/kg/injection, schedule: Q04DX003 (ip), vehicle: saline with Tween-80 150 % of control | dose: 4.0 mg/kg/injection, schedule: Q04DX003 (ip), vehicle: saline with Tween-80 163 % of control | dose: 6.0 mg/kg/injection, schedule: Q04DX003 (ip), vehicle: saline with Tween-80 172 % of control | dose: 9.0 mg/kg/injection, schedule: Q04DX003 (ip), vehicle: saline with Tween-80 168 % of control | dose: 22.0 mg/kg/injection, schedule: Q04DX003 (ip), vehicle: saline with Tween-80 200 % of control | dose: 25.0 mg/kg/injection, schedule: Q04DX003 (ip), vehicle: saline 254 % of control | dose: 33.0 mg/kg/injection, schedule: Q04DX003 (ip), vehicle: saline with Tween-80 227 % of control | dose: 50.0 mg/kg/injection, schedule: Q04DX003 (ip), vehicle: saline with Tween-80 231 % of control | dose: 50.0 mg/kg/injection, schedule: Q04DX003 (ip), vehicle: saline 240 % of control | dose: 75.0 mg/kg/injection, schedule: Q04DX003 (ip), vehicle: saline with Tween-80 281 % of control

O=[N+]([O-])c1ccc(N/N=C/CCl)c([N+](=O)[O-])c1
inactive: dose: 6.25 mg/kg/injection, schedule: Q04DX003 (ip), vehicle: saline with Tween-80 120 % of control | dose: 12.5 mg/kg/injection, schedule: Q04DX003 (ip), vehicle: saline with Tween-80 120 % of control | dose: 16.5 mg/kg/injection, schedule: Q04DX003 (ip), vehicle: saline with Tween-80 118 % of control | dose: 25.0 mg/kg/injection, schedule: Q04DX003 (ip), vehicle: saline with Tween-80 118 % of control
